Experimental data published in publication PMC5352362, “Molecular and functional evaluation of a novel HIF inhibitor, benzopyranyl 1,2,3-triazole compound” (Oncotarget, 2016).

Columns and labels:
[1] = tested on: HIF-1α target genes (VEGF, ALDOC, CA9, GLUT1, CXCR4); test: Semiquantitative RT-PCR of HIF-1α target genes in A549 cells; type: cell-based, human; conditions: 1–100 nM, 16 h, hypoxia
Text: As HIF-1α regulates transcription of its target genes, which are involved in angiogenesis, glucose metabolism, and metastasis in tumor progression, we determined the effects of Compound 12 on HIF-1 target gene expression at the mRNA level by semiquantitative RT-PCR. […] Thus, we checked secreted VEGF protein levels in culture media via ELISA.
Figure 5 Compound 12 suppressed HIF-1α target gene expression, and confirmation of in vitro results via determination of effects on angiogenesis in vivo (A) A549 cells were treated with Compound 12 (at concentrations of 0 nM, 1 nM, 10 nM, and 100 nM) for 16 h. The mRNA levels of HIF-1α target genes were determined by semiquantitative RT-PCR. β-actin was used as an internal control. D. DMSO vehicle control. N, normoxia; H, hypoxia. […] Media supernatant was collected, and secreted VEGF was determined by ELISA after removal of cellular debris. […] Cells that migrated through the membrane (8 μm pore size) were stained with hematoxylin and eosin, pictured as shown in upper panel, and counted (graph). *P < 0.05, **P < 0.01 versus VEGF-treated control. […] (F) Compound 12 (0.1 μg and 1 μg dosages) and retinoic acid (RA, positive control) were applied to the ED 4.5 CAM for two days, neovessel formation from the large vessels was observed, and percentages of positive angiogenic eggs (from total eggs tested) were calculated. […]

[2] = tested on: HUVECs; test: Transwell cell migration assay, VEGF-induced; type: cell-based, human; conditions: VEGF 20 ng/mL, 24 h
Procedure: Figure 5 Compound 12 suppressed HIF-1α target gene expression, and confirmation of in vitro results via determination of effects on angiogenesis in vivo (A) A549 cells were treated with Compound 12 (at concentrations of 0 nM, 1 nM, 10 nM, and 100 nM) for 16 h. The mRNA levels of HIF-1α target genes were determined by semiquantitative RT-PCR. β-actin was used as an internal control. D. DMSO vehicle control. N, normoxia; H, hypoxia. (B) A549 cells were treated with serum-reduced culture media containing Compound 12 (at concentrations of 0 nM, 10 nM, and 100 nM) for 16 h. Media supernatant was collected, and secreted VEGF was determined by ELISA after removal of cellular debris. N, normoxia; H, hypoxia. **P < 0.01 versus hypoxia (H) DMSO (D)-treated control. (C) HUVECs were treated with Compound 12, at the indicated concentrations, in the presence of VEGF (20 ng/mL) for 24 h in 1% serum-containing media. […] Cells that migrated through the membrane (8 μm pore size) were stained with hematoxylin and eosin, pictured as shown in upper panel, and counted (graph). *P < 0.05, **P < 0.01 versus VEGF-treated control. […] (F) Compound 12 (0.1 μg and 1 μg dosages) and retinoic acid (RA, positive control) were applied to the ED 4.5 CAM for two days, neovessel formation from the large vessels was observed, and percentages of positive angiogenic eggs (from total eggs tested) were calculated. […]

In the case of COc1ccc(-c2cn(CC3(C)C=Cc4cc([N+](=O)[O-])ccc4O3)nn2)cc1 (centres unmarked) [Compound 12, 4-(4-methoxyphenyl)-1-((2-methyl-6-nitro-2H-chromen-2-yl)methyl)-1H-1,2,3-triazole], the “mRNA levels of VEGF, ALDOC, CA9, GLUT1 and CXCR4” value [1] was “suppressed the mRNA levels” and the VEGF-induced endothelial migration [2] was “significantly inhibited”.
